Reference: publication PMC11005040, “Photoactivatable Ruthenium Complexes Containing Minimal Straining Benzothiazolyl-1,2,3-triazole Chelators for Cancer Treatment” (Inorganic Chemistry, 2024)
Like-named read-outs stand apart in the source and are kept apart here.

Experiments:
HeLa cells [1] = test system: HeLa cells; parameters: method as in doi:10.1016/j.dyepig.2022.110905; details: λexc 405 nm; cited from earlier work
HeLa cells [2] = experiment: Confocal microscopy imaging after blue light irradiation; type: cell-based, human; details: 15 μM
Description: HeLa cells were seeded onto Ibidi μ-slides at 10^4 cells/cm^2 in a complete medium and incubated for 24 h at 310 K and 5% CO2 in a humidified incubator. […] Cells were then washed with PBS twice and imaged under confocal microscopy (STELLARIS Leica Microsystems) using 405 nm excitation laser.

CHO cells = experiment: Dark cytotoxic screening, MTT test, 48 h; type: cell-based; details: 48 h in the dark
Description: (§1) For dark cytotoxic screening, A2780, CHO, HeLa, and A375 cells were cultured in 96-well plates at a density of 5 × 10^3 cells/well in complete medium and incubated for 24 h at 310 K and 5% CO2 in a humidified incubator. Serial dilutions of tested compounds in cell culture media were then added at final concentrations in the range of 0 to 100 μM in a final volume of 100 μL/well (%v/v DMSO below 0.4%) for 48 h prior to MTT test. For photoactivation studies, HeLa and A375 cells were used. Treatments were added at final concentrations in the range of 0 to 500 μM. After 1 h incubation with the compounds, light irradiation treatments were applied using a LED photoreactor (Luzchem; Canada) fitted with LED lamps centered at 465 nm (final intensity 4 mW/cm^2) for 1 h. Dark control analogues were directly kept in the dark for 2 h. After incubation periods, cells were washed with saline PBS buffer and loaded with 50 μL of MTT solution (1 mg/mL) for additional 4 h, then removed and 50 μL DMSO was added to solubilize the purple formazan crystals formed in active cells. The absorbance was measured at 570 nm using a microplate reader (FLUOstar Omega) and the IC50 values were calculated based on the inhibitory rate curves using the next the equation [drawing 2] where I represents the percentage inhibition of viability observed, Imax is the maximal inhibitory effect, IC50 is the concentration that inhibits 50% of maximal growth, C is the concentration of the treatment, and n is the slope of the semilogarithmic dose–response sigmoidal curves. The nonlinear fitting was performed using SigmaPlot 14.0 software. Two independent experiments were performed with triplicate points per concentration level (n = 3).

A375 cells [3] = experiment: Photoactivation studies (phototoxicity, MTT), dark vs blue light; type: cell-based, human
Description: as §1

HeLa cells [4] = experiment: as above; type: cell-based, human
Description: as §1

HeLa cells [5] = experiment: Cell uptake by confocal microscopy; type: cell-based, human; details: 15 μM, 2 h incubation; for Cellular uptake: λexc 450 nm
Description: HeLa cells were seeded onto Ibidi μ-slides at 10^4 cells/cm^2 in a complete medium and incubated for 24 h at 310 K and 5% CO2 in a humidified incubator. Compounds were added at indicated concentrations for 2 h. […]

A2780 cells = experiment: Dark cytotoxic screening, MTT test, 48 h; type: cell-based, human; details: 48 h in the dark
Description: as §1

A375 cells [6] = experiment: Dark cytotoxic screening, MTT test, 48 h; type: cell-based, human; details: 48 h in the dark
Description: as §1

HeLa cells [7] = experiment: Dark cytotoxic screening, MTT test, 48 h; type: cell-based, human; details: 48 h in the dark
Description: as §1

[8] = hypoxia (2% O2), 1 h incubation then blue light 465 nm, 4 mW/cm^2, 1 h, read-out: IC50 A375 blue light
[9] = hypoxia (2% O2), dark, read-out: IC50 A375 dark
[10] = normoxia (21% O2), 1 h incubation then blue light 465 nm, 4 mW/cm^2, 1 h, read-out: IC50 A375 blue light
[11] = normoxia (21% O2), dark 2 h, read-out: IC50 A375 dark
[12] = hypoxia (2% O2), 1 h incubation then blue light 465 nm, 4 mW/cm^2, 1 h, read-out: IC50 HeLa blue light
[13] = hypoxia (2% O2), dark, read-out: IC50 HeLa dark
[14] = normoxia (21% O2), 1 h incubation then blue light 465 nm, 4 mW/cm^2, 1 h, read-out: IC50 HeLa blue light
[15] = normoxia (21% O2), dark 2 h, read-out: IC50 HeLa dark

| Compound | IC50 (CHO cells) [µM] | IC50 (A375 cells [3]; [8]) [µM] | IC50 (A375 cells [3]; [9]) [µM] | P.I. A375 (IC50 dark/IC50 465 nm) (A375 cells [3]; normoxia) | IC50 (A375 cells [3]; [10]) [µM] | IC50 (A375 cells [3]; [11]) [µM] | P.I. HeLa (IC50 dark/IC50 465 nm) (HeLa cells [4]; hypoxia (2% O2)) | IC50 (HeLa cells [4]; [12]) [µM] | IC50 (HeLa cells [4]; [13]) [µM] | P.I. HeLa (IC50 dark/IC50 465 nm) (HeLa cells [4]; normoxia) | IC50 (HeLa cells [4]; [14]) [µM] | IC50 (HeLa cells [4]; [15]) [µM] | Intracellular distribution (HeLa cells [5]) | Cellular uptake (HeLa cells [5]) | IC50 (A2780 cells) [µM] | IC50 (A375 cells [6]) [µM] | IC50 (HeLa cells [7]) [µM] | P.I. A375 (IC50 dark/IC50 465 nm) (A375 cells [3]; hypoxia (2% O2)) | other results |
| --- | --- | --- | --- | --- | --- | --- | --- | --- | --- | --- | --- | --- | --- | --- | --- | --- | --- | --- | --- |
| CN(C)c1ccc(-n2cc(-c3nc4ccccc4s3)nn2)cc1 [L5] |  |  |  |  |  |  |  |  |  |  |  |  |  |  |  |  |  |  | Intracellular distribution (HeLa cells [1]): evenly distributed around cell cytoplasm but not within nuclei |
| CN(C)c1ccc(-n2cc(-c3nc4ccccc4s3)nn2)cc1.O=S(=O)([O-])C(F)(F)F.O=S(=O)([O-])C(F)(F)F.[Ru+2].c1cnc2c(c1)ccc1cccnc12.c1cnc2c(c1)ccc1cccnc12 [Ru5, [Ru(phen)2(L5)][OTf]2] | > 100 | > 100 | > 500 | >18.5 | 27.1 ± 6.2 | > 500 | >8.7 | 57.2 ± 6.4 | > 500 | >12.0 | 41.8 ± 3.9 | > 500 | across the cytoplasm in punctate deposits | excellent and rapid cellular uptake | > 100 | > 100 | > 100 |  | Cell cytotoxicity by imaging, 1 min irradiation (HeLa cells [2]; 1 h, then blue light 1 min): no cell cytotoxicity was observed; Cell cytotoxicity by imaging, 1 h irradiation (HeLa cells [2]; then blue light 1 h): discernible cell damage is evident |
| O=S(=O)([O-])C(F)(F)F.O=S(=O)([O-])C(F)(F)F.O=[N+]([O-])c1ccc(-n2cc(-c3nc4ccccc4s3)nn2)cc1.[Ru+2].c1cnc2c(c1)ccc1cccnc12.c1cnc2c(c1)ccc1cccnc12 [Ru4, [Ru(phen)2(L4)][OTf]2] | > 100 | 51.9 ± 2.4 | > 500 | >26.6 | 18.8 ± 3.7 | > 500 | >12.0 | 41.7 ± 2.7 | > 500 | >14.8 | 33.8 ± 5.5 | > 500 | across the cytoplasm in punctate deposits | excellent and rapid cellular uptake | > 100 | > 100 | > 100 | >9.6 |  |
| FC(F)(F)c1ccc(-n2cc(-c3nc4ccccc4s3)nn2)cc1.O=S(=O)([O-])C(F)(F)F.O=S(=O)([O-])C(F)(F)F.[Ru+2].c1cnc2c(c1)ccc1cccnc12.c1cnc2c(c1)ccc1cccnc12 [Ru3, [Ru(phen)2(L3)][OTf]2] | > 100 | > 100 | > 500 | >6.8 | 73.5 ± 4.3 | > 500 | >5.9 | 85.2 ± 4.4 | > 500 | >6.8 | 73.5 ± 4.2 | > 500 |  |  | > 100 | > 100 | > 100 |  |  |
| Cc1ccc(-n2cc(-c3nc4ccccc4s3)nn2)cc1.O=S(=O)([O-])C(F)(F)F.O=S(=O)([O-])C(F)(F)F.[Ru+2].c1cnc2c(c1)ccc1cccnc12.c1cnc2c(c1)ccc1cccnc12 [Ru1, [Ru(phen)2(L1)][OTf]2] | > 100 | 66.9 ± 6.1 | > 500 | >24.4 | 20.6 ± 1.5 | > 500 | >7.1 | 70.2 ± 5 | > 500 | >10.4 | 48 ± 3.4 | > 500 |  |  | > 100 | > 100 | > 100 | >7.5 |  |
| [NH2][Pt]([NH2])([Cl])[Cl] [CDDP, cisplatin, reference compound] | 7.8 ± 0.4 |  |  |  |  |  |  |  |  |  |  |  |  |  | 1.9 ± 0.1 |  | 21 ± 2 |  |  |
